# According to patent US8497265B2, “Heteroaryloxyheterocyclyl compounds as PDE10 inhibitors” (Amgen Inc., priority 2010, dated 2013):
# Target: PDE10 (Mus musculus, UniProt Q8CA95)
# Assay: PDE10 enzyme inhibition (IMAP TR-FRET assay)
# Assay type: biochemical
# Details: Table 8A
# Procedure: MPDE10A7 Enzyme Activity and Inhibition
# Enzyme Activity. An IMAP TR-FRET assay was used to analyze the enzyme activity (Molecular Devices Corp., Sunnyvale Calif.). 5 μL, of serial diluted PDE10A (BPS Bioscience, San Diego, Calif.) or tissue homogenate was incubated with equal volumes of diluted fluorescein labeled cAMP or cGMP for 60 min in 384-well polystyrene assay plates (Corning, Corning, N.Y.) at room temperature. After incubation, the reaction was stopped by adding 60 μL, of diluted binding reagents and was incubated for 3 hours to overnight at room temperature. The plates were read on an Envision (Perkin Elmer, Waltham, Mass.) for time resolved fluorescence resonance energy transfer. The data were analyzed with GraphPad Prism (La Jolla, Calif.).
# Enzyme Inhibition. To check the inhibition profile, 5 μL of serial diluted compounds were incubated with 5 μL of diluted PDE10 enzyme (BPS Bioscience, San Diego, Calif.) or tissue homogenate in a 384-well polystyrene assay plate (Corning, Corning, N.Y.) for 30 min at room temperature. […] The reaction was stopped by adding 60 μL of diluted binding reagents and plates were read on an Envision (Perkin Elmer, Waltham, Mass.) for time resolved fluorescence resonance energy transfer. The data were analyzed with GraphPad Prism (La Jolla, Calif.).
# Chain of PDE10 (Q8CA95 whole entry, looked up): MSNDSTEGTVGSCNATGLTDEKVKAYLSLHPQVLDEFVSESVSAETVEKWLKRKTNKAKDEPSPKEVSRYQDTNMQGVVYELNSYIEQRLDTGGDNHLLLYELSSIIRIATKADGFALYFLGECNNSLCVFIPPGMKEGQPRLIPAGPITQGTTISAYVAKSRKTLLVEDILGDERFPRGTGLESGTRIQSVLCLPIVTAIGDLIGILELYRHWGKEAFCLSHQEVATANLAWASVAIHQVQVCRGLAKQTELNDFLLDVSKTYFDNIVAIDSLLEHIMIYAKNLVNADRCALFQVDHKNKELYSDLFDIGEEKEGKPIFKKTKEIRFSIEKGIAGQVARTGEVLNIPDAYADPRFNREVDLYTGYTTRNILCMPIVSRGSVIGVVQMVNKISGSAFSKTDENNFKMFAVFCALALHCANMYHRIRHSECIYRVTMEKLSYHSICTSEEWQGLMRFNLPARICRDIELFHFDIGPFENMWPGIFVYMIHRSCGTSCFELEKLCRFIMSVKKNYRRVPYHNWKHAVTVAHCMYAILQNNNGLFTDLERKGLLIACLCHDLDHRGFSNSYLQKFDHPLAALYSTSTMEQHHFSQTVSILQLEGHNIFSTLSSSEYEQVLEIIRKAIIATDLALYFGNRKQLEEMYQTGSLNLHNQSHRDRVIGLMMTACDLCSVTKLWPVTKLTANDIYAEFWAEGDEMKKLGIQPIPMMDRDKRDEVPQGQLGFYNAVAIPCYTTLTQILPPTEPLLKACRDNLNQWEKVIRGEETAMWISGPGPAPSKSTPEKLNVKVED
substance,measurement,value
1-(4-(3-((1-(quinolin-2-yl)azetidin-3-yl)oxy)pyrazin-2-yl)phenyl)ethanone [Example 10.26],IC50,24.4 nM
